The source of these data is patent US4820707A, “2,6-piperazinedione compounds” (ADIR Et Cie, priority 1986, dated 1989).

Format in all cases: in vivo
The nature of test [1]: Anxiolytic activity by the four-plates test. Particulars: mice; for change in vivo at 5 mg/kg: 5 mg.kg^-1; for % increase in the responses: p.o. The procedure:
The anxiolytic activity of the compounds of the general formula I was investigated in mice according to the method of Aron Simon Larousse and Boissier described in Neuropharmacology (1971) 10 p. 459-469). After treatment of the animals by means of different doses of the compounds of the invention administered intraperitoneally or orally, the increase in the percentage of transitions during the exploration of the base of the test cage, in the presence of electric shocks, was assessed.

Test [2] in a line: Anxiolytic activity by the "staircase" test. Also on record: key to % variation in the steps climbed: NS: not significant. Particulars: rats. The text has this: The anxiolytic activity of the compounds of the invention was investigated in rats according to the method described by Thiebot, Soubrie and Boissier in J. Pharmacol. 1976, 7, (1), p. 87-102. In this test, behavior involving rearing movements is associated with a state of distress of the animal. The number of steps climbed represents the normal exploratory behavior of the rat introduced into the enclosure. Normally, an efficacious anxiolytic compound should decrease, during the test which lasts 3 minutes, the number of rearing movements without modifying the number of steps climbed, or on the contrary should increase this latter parameter.

Test [3] in a line: Anxiolytic activity by MacMillan's conflict test. As to conditions: rats, i.p., vs physiological saline; for % variation in the unpunished responses: NS (not significant); for % variation in the punished responses: S (significant). The text has this: In these conditioning experiments which operate in the presence of a food reward, performed in rats according to the method described by MacMillan in Fed. Proceedings, 1975, 34, (9), p. 1870-1879, two parameters in the animal's behavioral responses are considered. The first parameter is the variation in the level of punished responses, in the presence of an electric shock, under the influence of the treatment in comparison with the level of punished responses under the influence of physiological saline. The second parameter is the variation in the level of unpunished responses, without an electric shock, under the influence of the same treatment, in comparison with the level of unpunished responses when physiological saline is administered. A specific anxiolytic effect is established when, after the administration of a substance, the level of only the punished responses is increased.

Test [4] is described as follows: Inhibition of aggression in isolated and bulbectomized rats. As for the experimental part: The inhibition of aggression was assessed according to the method described by Vergnes and Karli in C.R. Soc. Biol. 1963, 157, p. 1061. The effect on the aggression is assessed in terms of the percentage of animals which became non-killers after treatment.
Test [5] in a line: Inhibition of the active conditioned avoidance response in rats. As to conditions: i.p. The text has this:
The results obtained with the compounds of general formula I during the various experiments employing the method described by Courvoisier et al. in Arch. Int. Pharmacodyn., 1953, 92, p. 305-361 and by Janssen et al. in Arzneim, Forsch, 1965, 15, p.

Test [6] can be described thus: Inhibition of isolation-induced aggression in mice. As to conditions: Mus musculus, ip, read-out: Inhibitory ED50 (effective dose inhibiting 50% of the aggressive animals). The text has this:
The compounds of general formula I inhibit the attacking behavior of mice rendered aggressive by isolation according to the method described by Yen, Stanger and Millman in Arch. Int. Pharmacodyn. 1959, 123, p. 179-185.

[7] abbreviates: Mus musculus, ip, i.p., read-out: % increase in the responses (transitions).
[8] abbreviates: Mus musculus, ip, i.p., 25 mg.kg^-1, read-out: % increase in the responses (transitions).
Where [9] appears, read: Mus musculus, ip, i.p., 10 mg.kg^-1, read-out: % increase in the responses (transitions).

One may read the ED50 as the dose that gives a 50% effect, or the effect in half of the subjects.

Where a name gives a salt, the structure may show the parent alone.

Consider `O=C1CN(Cc2ccccc2Cl)CC(=O)N1CCCN1CCN(c2cccc(C(F)(F)F)c2)CC1` [Example 4, 4-(2-Chlorobenzyl)-1-{3-[1-(3-trifluoromethylphenyl)-4-piperazinyl]propyl}-2,6-piperazinedione dimandelate], for which the change in vivo at 5 mg/kg in test [1] (setting [7]) is 37%. The change in vivo at 25 mg/kg in test [1] (setting [8]) was 67%. Moreover, the “% increase in the responses” value in test [1] (25 mg.kg^-1) turned out to be 35%; in test [1] (50 mg.kg^-1) it was 58%. Moreover, in test [2] (i.p., 10 mg.kg^-1), the “% variation in the rearing movements” value is on record as -47%. The “% variation in the steps climbed” value in test [2] (i.p., 10 mg.kg^-1) is given as “NS”.

Turning to `Cl.Cl.O=C1CN(Cc2ccccc2)CC(=O)N1CCN1CCN(c2cccc(C(F)(F)F)c2)CC1` [Example 10, 4-Benzyl-1-{2-[1-(3-trifluoromethylphenyl)-4-piperazinyl]ethyl}-2,6-piperazinedione dihydrochloride], in test [1] (setting [8]), the change in vivo at 25 mg/kg worked out at 85%. In test [3] (5 mg.kg^-1), the “% variation in the unpunished responses” value was “+18%” and the “% variation in the punished responses” value is recorded as “+67%”. For the same molecule, the “% of non-killer animals” value in test [4] (i.p., 25 mg.kg^-1) worked out at 66%.

As for `COc1ccccc1CN1CC(=O)N(CCCN2CCN(c3ccc(C)cc3)CC2)C(=O)C1` [Example 14, 4-(2-Methoxybenzyl)-1-{3-[1-(4-methylphenyl)-4-piperazinyl]propyl}-2,6-piperazinedione], in test [3] (5 mg.kg^-1), the “% variation in the unpunished responses” value is “+14%” and the “% variation in the punished responses” value is listed as “+48%”.

Consider `COc1ccccc1N1CCN(CCCN2C(=O)CN(Cc3ccccn3)CC2=O)CC1.Cl.Cl.Cl.Cl` [Example 18, 4-(2-Pyridylmethyl)-1-{3-[1-(2-methoxyphenyl)-4-piperazinyl]propyl}-2,6-piperazinedione tetrahydrochloride], for which the “% ICAR (percentage inhibition of the conditioned avoidance response)” value in test [5] (10 mg.kg^-1) was determined as 18%; in test [5] (15 mg.kg^-1) it was 35%; in test [5] (dose not printed in this line), 56%.

Turning to `O=C1CN(C2CCCCC2)CC(=O)N1CCCN1CCN(c2cccc(C(F)(F)F)c2)CC1` [Example 27, 4-Cyclohexyl-1-{3-[1-(3-trilfuoromethylphenyl)-4-piperazinyl]propyl}-2,6-piperazinedione dihydrochloride], the change in vivo at 25 mg/kg in test [1] (setting [8]) stood at 73%. In test [2] (i.p., 2,5 mg.kg^-1), the “% variation in the rearing movements” value is on record as -41% and the “% variation in the steps climbed” value is listed as “NS”.

For the molecule `Cc1ccc(N2CCN(CCCN3C(=O)CN(Cc4ccccn4)CC3=O)CC2)cc1.Cl.Cl.Cl` [Example 20, 4-(2-Pyridylmethyl)-1-{3-[1-(4-methylphenyl)-4-piperazinyl]propyl}-2,6-piperazinedione trihydrochloride], in test [2] (i.p., 2,5 mg.kg^-1), the “% variation in the rearing movements” value is given as -43% and the “% variation in the steps climbed” value is “NS”.

Turning to `O=C1CN(C(c2ccccc2)c2ccccc2)CC(=O)N1CCCN1CCN(c2cccc(C(F)(F)F)c2)CC1` [Example 24, 4-Diphenylmethyl-1-{3-[1-(3-trifluoromethylphenyl)-4-piperazinyl]propyl}-2,6-piperazinedione dimandelate], the change in vivo at 25 mg/kg in test [1] (setting [8]) was determined as 62%.

For the molecule `Cl.Cl.Cl.O=C1CN(Cc2cccnc2)CC(=O)N1CCCN1CCN(c2cccc(Cl)c2)CC1` [Example 22, 4-(3-Pyridylmethyl)-1-{3-[1-(3-chlorophenyl)-4-piperazinyl]propyl}-2,6-piperazinedione trihydrochloride], the change in vivo at 10 mg/kg in test [1] (setting [9]) came out at 44%. Besides, the “% of non-killer animals” value in test [4] (i.p., 12,5 mg.kg^-1) worked out at 83%.

On to `O=C1CN(C(c2ccccc2)c2ccc(Cl)cc2)CC(=O)N1CCCN1CCN(c2cccc(C(F)(F)F)c2)CC1` (centres unmarked) [Example 26, 4-(4-Chlorodiphenylmethyl)-1-{3-[1-(3-trifluoromethylphenyl)-4-piperazinyl]propyl}-2,6-piperazinedione dicitrate], for which the “% increase in the responses” value in test [1] (25 mg.kg^-1) stood at 69%.

For the molecule `Cl.Cl.Cl.O=C1CN(Cc2ccccn2)CC(=O)N1CCCN1CCN(c2ccc(F)cc2)CC1` [Example 7, 4-(2-Pyridylmethyl)-1-{3-[1-(4-fluorophenyl)-4-piperazinyl]propyl}-2,6-piperazinedione trihydrochloride], in test [4] (i.p., 25 mg.kg^-1), the “% of non-killer animals” value is recorded as 67%. The “% ICAR (percentage inhibition of the conditioned avoidance response)” value in test [5] (10 mg.kg^-1) was determined as 30%; in test [5] (15 mg.kg^-1), 48%; in test [5] (20 mg.kg^-1) it was 79%.

Regarding `Cc1ccccc1N1CCN(CCCN2C(=O)CN(C(c3ccccc3)c3ccccc3)CC2=O)CC1` [Example 23, 4-Diphenylmethyl-1-{3-[1-(2-methylphenyl)-4-piperazinyl]propyl}-2,6-piperazinedione trimethanesulfonate], the change in vivo at 10 mg/kg in test [1] (setting [9]) stood at 47%. Moreover, the change in vivo at 25 mg/kg in test [1] (setting [8]) is 77%.

For `O=C1CN(CCCN2CCN(c3cccc(C(F)(F)F)c3)CC2)CC(=O)N1Cc1ccccc1` [Example 28, 1-Benzyl-4-{3-[1-(3-trifluoromethylphenyl)-4-piperazinyl]propyl}-2,6-piperazinedione diphosphate], the change in vivo at 25 mg/kg in test [1] (setting [8]) was 82%.

Consider `Cl.Cl.Cl.O=C1CN(Cc2ccccn2)CC(=O)N1CCCN1CCN(c2ccccc2Cl)CC1` [Example 17, 4-(2-Pyridylmethyl)-1-{3-[1-(2-chlorophenyl)-4-piperazinyl]propyl}-2,6-piperazinedione trihydrochloride], for which the ED50 in test [6] came out at 6.11 mg/kg.

In the case of `O=C1CN(Cc2ccccc2F)CC(=O)N1CCCN1CCN(c2ccc(C(F)(F)F)cn2)CC1` [Example 30, 4-(2-Fluorobenzyl)-1-{3-[1-(5-trifluoromethyl-2-pyridinyl)-4-piperazinyl]propyl}-2,6-piperazinedione dihydrochloride], in test [1] (setting [7]), the change in vivo at 5 mg/kg is 40%.

Regarding `COc1cccc(CN2C(=O)CN(CCCN3CCN(c4cccc(C(F)(F)F)c4)CC3)CC2=O)c1` [Example 29, 1-(3-Methoxybenzyl)-4-{3-[1-(3-trifluoromethylphenyl)-4-piperazinyl]propyl}-2,6-piperazinedione diphosphate], the change in vivo at 25 mg/kg in test [1] (setting [8]) was determined as 49%.

As to `COc1ccccc1CN1CC(=O)N(CCCN2CCN(c3cccc(C(F)(F)F)c3)CC2)C(=O)C1.Cl.Cl` [Example 15, 4-(2-Methoxybenzyl)-1-{3-[1-(3-trifluoromethylphenyl)-4-piperazinyl]propyl}-2,6-piperazinedione dihydrochloride], the change in vivo at 20 mg/kg in test [1] (Mus musculus, ip, i.p., 20 mg.kg^-1, read-out: % increase in the responses (transitions)) stood at 52%. Further, in test [1] (10 mg.kg^-1), the “% increase in the responses” value turned out to be 61%. Moreover, the “% increase in the responses” value in test [1] (50 mg.kg^-1) amounted to 90%. Further, in test [2] (i.p., 10 mg.kg^-1), the “% variation in the rearing movements” value is recorded as -43% and the “% variation in the steps climbed” value was “NS”. In test [2] (i.p., 20 mg.kg^-1), the “% variation in the rearing movements” value is recorded as -64% and the “% variation in the steps climbed” value is recorded as “NS”. Further, in test [3] (10 mg.kg^-1), the “% variation in the unpunished responses” value is recorded as “+37%” and the “% variation in the punished responses” value is “+41%”. For the same molecule, the “% of non-killer animals” value in test [4] (i.p., 25 mg.kg^-1) is 64%.

With `Cl.Cl.Cl.O=C1CN(Cc2ccccc2)CC(=O)N1CCCCN1CCN(c2ncccn2)CC1` [Example 5, 4-Benzyl-1-{4-[1-(2-pyrimidinyl)-4-piperazinyl]butyl}-2,6-piperazinedione trihydrochloride], in test [2] (i.p., 1,25 mg.kg^-1), the “% variation in the rearing movements” value is -40% and the “% variation in the steps climbed” value is given as “NS”.

Take `COc1ccccc1CN1CC(=O)N(CCN2CCN(c3cccc(C(F)(F)F)c3)CC2)C(=O)C1` [Example 16, 4-(2-Methoxybenzyl)-1-{2-[1-(3-trifluoromethylphenyl)-4-piperazinyl]ethyl}-2,6-piperazinedione trihydrochloride]: in test [1] (setting [9]), the change in vivo at 10 mg/kg was determined as 41%.
